Read-outs that look alike come from different tables or passages of the source.
Columns and labels:
[1] = N. Engl. J. Med. 2004; 350(21):2129-2139; cited from earlier work
[2] = all of the patients treated with gefitinib, 250 mg daily orally
[3] = four patients with EGFR mutations detected in tumour samples
[4] = patients with EGFR mutations in serum
[5] = patients without EGFR mutations in serum
[6] = serum EGFR mutation + by EGFR Scorpion Kit
[7] = serum EGFR mutation + by direct sequence
[8] = serum EGFR mutation − by EGFR Scorpion Kit
[9] = serum EGFR mutation − by direct sequence

## COc1cc2ncnc(Nc3ccc(F)c(Cl)c3)c2cc1OCCCN1CCOCC1 [gefitinib]
[1]
  patients that have a rapid and often dramatic clinical response: about 10%
NSCLC; 28 patients enrolled, RECIST
  Response PD (progressive disease), number of patients: 11 n
  Response PR (partial response), number of patients: 9 n
  Response SD (stable disease), number of patients: 8 n
NSCLC; [2]
  median OS: 306 days
  median PFS: 98 days
NSCLC; [3]
  responses to gefitinib: PD, number of patients: 1
  responses to gefitinib: PR, number of patients: 2
  responses to gefitinib: SD, number of patients: 1
NSCLC; [4]
  median OS: 611 days
  median PFS: 200 days
NSCLC; [5]
  median OS: 232 days
  median PFS: 46 days
NSCLC; [6]
  Response to gefitinib PD, number of patients: 2
  Response to gefitinib PR/SD, number of patients: 11
NSCLC; [7]
  Response to gefitinib PD, number of patients: 2
  Response to gefitinib PR/SD, number of patients: 8
NSCLC; [8]
  Response to gefitinib PD, number of patients: 8
  Response to gefitinib PR/SD, number of patients: 6
NSCLC; [9]
  Response to gefitinib PD, number of patients: 8
  Response to gefitinib PR/SD, number of patients: 9

Reference: patent US20080286785A1, “Method to predict or monitor the response of a patient to an erbb receptor drug” (AstraZeneca UK Limited, priority 2005, published 2008)
